Measured values reported in patent publication US20230013602A1, “NOVEL IMIDAZOPYRAZINE DERIVATIVES” (Hoffmann-La Roche Inc., priority 2018, published 2023).
Where a name gives a salt, the structure may show the parent alone.

Tested on: Acinetobacter baumannii ATCC17961
Experiment: Antimicrobial susceptibility testing, 90% growth inhibitory concentration (IC90) determination
Assay type: cell-based
Details: 90% growth inhibitory concentration, Acinetobacter baumannii ATCC17961, Iso-Sensitest broth, OD 600 nm over 16 h; read-out: ATCC17961 IC90
Procedure: The in vitro antimicrobial activity of the compounds was determined according to the following procedure:
The assay used a 10-points Iso-Sensitest broth medium to measure quantitatively the in vitro activity of the compounds against Acinetobacter baumannii ATCC 17978 and Acinetobacter baumannii ATCC17961.
Stock compounds in DMSO were serially twofold diluted (e.g. range from 50 to 0.097 μM final concentration) in 384 wells microtiter plates and inoculated with 49 μl the bacterial suspension in Iso-Sensitest medium to have a final cell concentration of ˜5×10^(5) CFU/ml in a final volume/well of 50 ul/well. Microtiter plates were incubated at 35+2° C.
Bacterial cell growth was determined with the measurement of optical density at X=600 nm each 20 minutes over a time course of 16 h. Growth inhibition was calculated during the logarithmic growth of the bacterial cells with determination of the concentration inhibiting 50% (IC50) and 90% (IC90) of the growth.
Table 1 provides the 90% growth inhibitory concentrations (IC90) in micromoles per liter of the compounds of present invention obtained against the strain Acinetobacter baumannii ATCC17978 and Acinetobacter baumannii ATCC17961.

Compound | IC90
CCc1cc(Nc2nccn3c(-c4ccc(OC)c(F)c4F)cnc23)ccc1C(=O)N[C@@H]1C[C@H]1NC(=O)[C@@H]1C[C@@H](O)CN1 (mixture of isomers) [Example 68, (2S,4R)-N-[(1RS, 2RS)-2-[[4-[[3-(2,3-difluoro-4-methoxy-phenyl)imidazo[1,2-a]pyrazin-8-yl]amino]-2-ethyl-benzoyl]amino]cyclopropyl]-4-hydroxy-pyrrolidine-2-carboxamide] | 140 nM
CCc1cc(Nc2nccn3c(-c4ccc(OC)c(F)c4F)cnc23)ccc1C(=O)NC1CCC1NC(=O)[C@@H]1C[C@@H](O)CN1 (mixture of isomers) [Example 69, (2S,4R)-N-(2-(4-((3-(2,3-difluoro-4-methoxyphenyl)imidazo[1,2-a]pyrazin-8-yl)amino)-2-ethylbenzamido)cyclobutyl)-4-hydroxypyrrolidine-2-carboxamide] | 246 nM
CCc1cc(Nc2nccn3c(-c4ccc(OC)c(F)c4F)cnc23)ccc1C(=O)NC1CC1NC(=O)[C@@H]1C[C@@H](O)CN1 (mixture of isomers) [Example 73, (2S,4R)-N-[(cis-1SR,2RS)-2-[[4-[[3-(2,3-difluoro-4-methoxy-phenyl)imidazo[1,2-a]pyrazin-8-yI]amino]-2-ethyl-benzoyl]amino]cyclopropyl]-4-hydroxy-pyrrolidine-2-carboxamide] | 173 nM
CCc1cc(Nc2nccn3c(-c4ccc(OC)c(F)c4F)cnc23)ccc1C(=O)N[C@H]1CC[C@H](N)C1 (racemic) [Example 43, rac-N-((1R,3 R)-3-aminocyclopentyl)-4-((3-(2,3-difluoro-4-methoxyphenyl)imidazo[1,2-a]pyrazin-8-yl)amino)-2-ethylbenzamide] | 211 nM
CCc1cc(Nc2nccn3c(-c4ccc(OC)c(F)c4F)cnc23)ccc1C(=O)NC1CCC(NC(=O)[C@@H](N)CCCNC(=N)N)C1 (mixture of isomers) [Example 46, rac-N-(3-((R)-2-amino-5-guanidinopentanamido)cyclopentyl)-4-((3-(2,3-difluoro-4-methoxyphenyl)imidazo[1,2-a]pyrazin-8-yl)amino)-2-ethylbenzamide bis(2,2,2-trifluoroacetate)] | 754 nM
CCc1cc(Nc2nccn3c(-c4ccc(OC)c(F)c4F)cnc23)ccc1C(=O)NC1CCCN(C(=O)[C@@H](N)CCCNC(=N)N)C1 (mixture of isomers) [Example 48, rac-N-(1-(D-arginyl)piperidin-3-yl)-4-((3-(2,3-difluoro-4-methoxyphenyl)imidazo[1,2-a]pyrazin-8-yl)amino)-2-ethylbenzamide bis(2,2,2-trifluoroacetate)] | 749 nM
COc1ccc(-c2cnc3c(Nc4ccc(C(=O)N[C@H]5CC[C@H](N)C5)c(C)c4)nccn23)c(F)c1F (racemic) [Example 54, rac-N-((1R,3R)-3-aminocyclopentyl)-4-((3-(2,3-difluoro-4-methoxyphenyl)imidazo[1,2-a]pyrazin-8-yl)amino)-2-methylbenzamide] | 238 nM
CCc1cc(Nc2nccn3c(-c4ccc(OC)c(F)c4F)cnc23)ccc1C(=O)N[C@@H]1C[C@H]1N (racemic) [Example 58, rac-N-((1R,2R)-2-aminocyclopropyl)-4-((3-(2,3-difluoro-4-methoxyphenyl)imidazo[1,2-a]pyrazin-8-yl)amino)-2-ethylbenzamide] | 315 nM
COc1ccc(-c2cnc3c(Nc4ccc(C(=O)NC5CCCN(C(=O)[C@@H]6C[C@@H](O)CN6)C5)c(C)c4)nccn23)c(F)c1F (mixture of isomers) [Example 59, rac-4-((3-(2,3-difluoro-4-methoxyphenyl)imidazo[1,2-a]pyrazin-8-yl)amino)-N-(1-((2R,4S)-4-hydroxypyrrolidine-2-carbonyl)piperidin-3-yl)-2-methylbenzamide] | 294 nM
CCc1cc(Nc2nccn3c(-c4ccc(OC)c(F)c4F)cnc23)ccc1C(=O)N[C@@H]1C[C@@H]1N (racemic) [Example 74, rac-N-((1R,2S)-2-aminocyclopropyl)-4-((3-(2,3-difluoro-4-methoxyphenyl)imidazo[1,2-a]pyrazin-8-yl)amino)-2-ethylbenzamide] | 201 nM
CCc1cc(Nc2nccn3c(-c4ccc(OC)c(F)c4F)cnc23)ccc1C(=O)NC1CCCNC1 (stereo not shown) [Example 41, 4-((3-(2,3-difluoro-4-methoxyphenyl)imidazo[1,2-a]pyrazin-8-yl)amino)-2-ethyl-N-(piperidin-3-yl)benzamide] | 363 nM
CCc1cc(Nc2nccn3c(-c4ccc(OC)c(F)c4F)cnc23)ccc1C(=O)N[C@H]1CC[C@H](N)CC1 [Example 42, trans-N-((1r,4r)-4-aminocyclohexyl)-4-((3-(2,3-difluoro-4-methoxyphenyl)imidazo[1,2-a]pyrazin-8-yl)amino)-2-ethylbenzamide] | 260 nM
CCc1cc(Nc2nccn3c(-c4ccc(OC)c(F)c4F)cnc23)ccc1C(=O)NC1CCN(C(=O)[C@@H](N)CCCNC(=N)N)CC1 [Example 44, N-(1-(L-arginyl)piperidin-4-yl)-4-((3-(2,3-difluoro-4-methoxyphenyl)imidazo[1,2-a]pyrazin-8-yl)amino)-2-ethylbenzamide bis(2,2,2-trifluoroacetate)] | 847 nM
CCc1cc(Nc2nccn3c(-c4ccc(OC)c(F)c4F)cnc23)ccc1C(=O)N[C@H]1CC[C@H](NC(=O)[C@@H](N)CCCNC(=N)N)CC1 [Example 45, N-((1S,4r)-4-((S)-2-amino-5-guanidinopentanamido)cyclohexyl)-4-((3-(2,3-difluoro-4-methoxyphenyl)imidazo[1,2-a]pyrazin-8-yl)amino)-2-ethylbenzamide bis(2,2,2-trifluoroacetate)] | 559 nM
CCc1cc(Nc2nccn3c(-c4ccc(OC)c(F)c4F)cnc23)ccc1C(=O)N[C@@H]1CCN(C(=O)[C@@H](N)CCCNC(=N)N)C1 [Example 47, N-((R)-1-(L-arginyl)pyrrolidin-3-yl)-4-((3-(2,3-difluoro-4-methoxyphenyl)imidazo[1,2-a]pyrazin-8-yl)amino)-2-ethylbenzamide bis(2,2,2-trifluoroacetate)] | 352 nM
CCc1cc(Nc2nccn3c(-c4ccc(OC)c(F)c4F)cnc23)ccc1C(=O)NC1CCCCC1NC(=O)[C@@H]1C[C@@H](O)CN1 (stereo partly drawn) [Example 49, (2S,4R)-N-(2-(4-((3-(2,3-difluoro-4-methoxyphenyl)imidazo[1,2-a]pyrazin-8-yl)amino)-2-ethylbenzamido)cyclohexyl)-4-hydroxypyrrolidine-2-carboxamide dihydrochloride] | 274 nM
COc1ccc(-c2cnc3c(Nc4ccc(C(=O)NC5CCNCC5)c(C)c4)nccn23)c(F)c1F [Example 50, 4-((3-(2,3-difluoro-4-methoxyphenyl)imidazo[1,2-a]pyrazin-8-yl)amino)-2-methyl-N-(piperidin-4-yl)benzamide] | 319 nM
COc1ccc(-c2cnc3c(Nc4ccc(C(=O)NC5CCCNC5)c(C)c4)nccn23)c(F)c1F (stereo not shown) [Example 51, 4-((3-(2,3-difluoro-4-methoxyphenyl)imidazo[1,2-a]pyrazin-8-yl)amino)-2-methyl-N-(piperidin-3-yl)benzamide] | 324 nM
COc1ccc(-c2cnc3c(Nc4ccc(C(=O)N[C@H]5CC[C@H](N)CC5)c(C)c4)nccn23)c(F)c1F [Example 52, rac-N-((1r,4r)-4-aminocyclohexyl)-4-((3-(2,3-difluoro-4-methoxyphenyl)imidazo[1,2-a]pyrazin-8-yl)amino)-2-methylbenzamide] | 243 nM
CCc1cc(Nc2nccn3c(-c4ccc(OC)c(F)c4F)cnc23)ccc1C(=O)N[C@H]1CCC[C@H]1NC(=O)[C@@H]1C[C@@H](O)CN1 [Example 53, (2S,4R)-N-((1R, 2S)-2-(4-((3-(2,3-difluoro-4-methoxyphenyl)imidazo[1,2-a]pyrazin-8-yl)amino)-2-ethylbenzamido)cyclopentyl)-4-hydroxypyrrolidine-2-carboxamide] | 987 nM
COc1ccc(-c2cnc3c(Nc4ccc(C(=O)N[C@H]5CCNC5)c(C)c4)nccn23)c(F)c1F [Example 55, (S)-4-((3-(2,3-difluoro-4-methoxyphenyl)imidazo[1,2-a]pyrazin-8-yl)amino)-2-methyl-N (pyrrolidin-3-yl)benzamide] | 236 nM
COc1ccc(-c2cnc3c(Nc4ccc(C(=O)NC5CNC5)c(C)c4)nccn23)c(F)c1F [Example 56, N-(azetidin-3-yl)-4-((3-(2,3-difluoro-4-methoxyphenyl)imidazo[1,2-a]pyrazin-8-yl)amino)-2-methylbenzamide] | 279 nM
COc1ccc(-c2cnc3c(Nc4ccc(C(=O)N[C@H]5C[C@H](N)C5)c(C)c4)nccn23)c(F)c1F [Example 57, rac-N-((1r,3r)-3-aminocyclobutyl)-4-((3-(2,3-difluoro-4-methoxyphenyl)imidazo[1,2-a]pyrazin-8-yl)amino)-2-methylbenzamide] | 247 nM
COc1ccc(-c2cnc3c(Nc4ccc(C(=O)N[C@H]5CC[C@@H](NC(=O)C(C)C)CC5)c(C)c4)nccn23)c(F)c1F [Example 60, rac-4-((3-(2,3-dif!uoro-4-methoxyphenyl)imidazo[1,2-a]pyrazin-8-yl)amino)-N-((1s,4s)-4-isobutyramidocyclohexyl)-2-methylbenzamide] | 189 nM
CCc1cc(Nc2nccn3c(-c4ccc(OC)c(F)c4F)cnc23)ccc1C(=O)NC12CC(N)(C1)C2 [Example 61, N-(3-aminobicyclo[1.1.1]pentan-1-yl)-4-((3-(2,3-difluoro-4-methoxyphenyl)imidazo[1,2-a]pyrazin-8-yl)amino)-2-ethylbenzamide dihydrochloride] | 259 nM
